Measured values published in patent US20250179033A1 (priority 2021, published 2025).
Where “and” joins values, the source holds several entries; their conditions need not be identical. Equal values may be shown once.

Experiments:
[1] = test system: Huh-7D12; assay: 99% toxic dose (TD99) in Huh-7D12; format: cell-based
[2] = test system: THP-1; assay: 99% toxic dose (TD99) in THP-1; format: cell-based
[3] = test system: E. coli PQ37; assay: Mutagenicity evaluation (SOS-chromotest); format: cell-based, Escherichia coli; settings: 10 mg/mL
Protocol: Mutagenicity evaluation: Escherichia coli PQ37 strain was grown overnight at 37° C., with shaking, in Luria Broth Base supplemented with 50 μg/mL Ampicillin. Bacteria were grown to mid-logarithmic phase and adjusted to an optical density of 0.4.
The second day, Luria Broth Base supplemented with 1.5% Agar was autoclaved for 15 minutes at 121° C. and then put into a water bath at 55° C. for 1 hour.
80 mL of warm agar was transferred into a plastic bottle (Milian, PETG 2019-0125) supplemented with […] ampicillin and 0.005% X-Gal (dissolved into DMF). 4 mL of E. coli PQ37 was added to the mixture and 70 mL of it was transferred into a square petri dish (Grenier Bio-One, Kremsmunster, Austria, 120×120 mm). Petri dish containing the mixture was dried 15 minutes at RT and once the mixture became solid, 6 mm absorbent disks were stuck on the plate.
5 μL of each compound were added on the disk with a pipet sold under the tradename PIPETMAN® P20 (Gilson S.A.S., Villiers-Le-Bel, France) and the petri dish was incubated overnight at 37° C.
The third day, zones of inhibition were recorded with a ruler and a picture of the plate was taken with a scanner (Canon 8800F, Cannon U.S.A., Inc., Melville, New York, United States of America).
Zone of inhibition was calculated by eye using a ruler and presence/absence of blue halo was reporter.

[4] = target: CYP2C9 (Homo sapiens, UniProt P11712); assay: Human CYP inhibition in human liver microsomes; format: in vitro ADME; settings: substrate diclofenac, read-out: CYP inhibition IC50, 2C9
Chain of CYP2C9 (P11712 whole entry): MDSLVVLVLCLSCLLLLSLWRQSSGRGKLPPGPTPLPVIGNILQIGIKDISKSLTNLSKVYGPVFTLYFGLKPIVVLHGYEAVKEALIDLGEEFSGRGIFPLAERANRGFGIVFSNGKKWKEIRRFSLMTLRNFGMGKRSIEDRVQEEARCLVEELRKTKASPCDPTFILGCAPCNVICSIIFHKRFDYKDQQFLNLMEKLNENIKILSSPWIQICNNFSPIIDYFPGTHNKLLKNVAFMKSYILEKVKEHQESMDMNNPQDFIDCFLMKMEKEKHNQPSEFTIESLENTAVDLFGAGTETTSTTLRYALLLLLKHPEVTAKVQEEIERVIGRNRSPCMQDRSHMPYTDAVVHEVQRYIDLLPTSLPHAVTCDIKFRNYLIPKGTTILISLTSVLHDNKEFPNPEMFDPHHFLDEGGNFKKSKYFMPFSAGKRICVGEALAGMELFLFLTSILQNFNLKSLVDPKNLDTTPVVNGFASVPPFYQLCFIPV
Protocol: (§1) Study samples (containing either control inhibitor or test compound) were added into the tubes, vortexed gently and pre-incubated for 5 min at 37° C. 20 μL of NADPH solution was aliquoted into all tubes, then vortexed to start the reaction and to assure adequate mixture of the NADPH. After mixing, the tubes were incubated for 20 min at 37° C. in a shaking water bath and then quenched in […] formic acid/acetonitrile solution. After quenching, the samples were vortexed vigorously for 1 min and centrifuged at 4,000 rpm for 15 min (4° C.). 100 μL of supernatant was transferred to 0.65 ml tubes for LCMS analysis by the bioanalytical method described earlier. The CYP450 substrates and control inhibitors for each enzyme was as follows: CYP1A2 (phenacetin, naphthoflavone), CYP2C9 (diclofenac, sulfaphenazole), CYP2C19 (omeprazole, tranylcypromine), CYP2D6 (dextromethorphan, quinidine), CYP3A4 (midazolam, ketoconazole).

[5] = target: T1, CYP1A2 (Homo sapiens, UniProt P05177); assay: Human CYP inhibition in human liver microsomes; format: in vitro ADME; settings: substrate phenacetin, read-out: CYP inhibition IC50, 1A2
T1 sequence (P05177 1-516): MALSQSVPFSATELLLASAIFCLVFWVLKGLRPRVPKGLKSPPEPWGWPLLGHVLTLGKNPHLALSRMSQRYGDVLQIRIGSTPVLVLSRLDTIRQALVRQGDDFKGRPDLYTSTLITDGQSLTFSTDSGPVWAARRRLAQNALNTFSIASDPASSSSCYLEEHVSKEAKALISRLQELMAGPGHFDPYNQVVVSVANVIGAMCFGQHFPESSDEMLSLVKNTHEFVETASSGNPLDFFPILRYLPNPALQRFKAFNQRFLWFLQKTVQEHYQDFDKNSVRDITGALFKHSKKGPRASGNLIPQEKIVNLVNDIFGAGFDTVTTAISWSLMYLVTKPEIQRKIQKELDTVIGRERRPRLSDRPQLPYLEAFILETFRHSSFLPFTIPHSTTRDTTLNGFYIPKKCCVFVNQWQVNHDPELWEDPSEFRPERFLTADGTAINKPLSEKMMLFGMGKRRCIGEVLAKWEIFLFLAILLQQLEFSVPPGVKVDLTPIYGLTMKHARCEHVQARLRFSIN
Protocol: as §1

[6] = target: CYP2C19 (Homo sapiens, UniProt P33261); assay: Human CYP inhibition in human liver microsomes; format: in vitro ADME; settings: substrate omeprazole, read-out: CYP inhibition IC50, 2C19
Chain of CYP2C19 (P33261 whole entry): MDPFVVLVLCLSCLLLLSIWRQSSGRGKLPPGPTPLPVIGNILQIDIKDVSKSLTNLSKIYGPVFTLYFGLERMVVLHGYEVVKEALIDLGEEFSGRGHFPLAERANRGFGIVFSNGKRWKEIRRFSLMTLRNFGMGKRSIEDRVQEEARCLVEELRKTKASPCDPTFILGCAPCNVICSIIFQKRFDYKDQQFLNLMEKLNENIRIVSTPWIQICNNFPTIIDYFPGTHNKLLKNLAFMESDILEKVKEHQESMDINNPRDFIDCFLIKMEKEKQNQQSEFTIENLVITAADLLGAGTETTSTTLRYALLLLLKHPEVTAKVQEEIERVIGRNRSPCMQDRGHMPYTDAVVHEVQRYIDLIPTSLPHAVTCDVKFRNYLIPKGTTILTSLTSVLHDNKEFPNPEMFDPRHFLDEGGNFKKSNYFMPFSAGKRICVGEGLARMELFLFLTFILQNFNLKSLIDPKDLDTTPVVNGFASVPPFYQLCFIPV
Protocol: as §1

SMILES	99% toxic dose (TD99) [1]	99% toxic dose (TD99) [2]	Genotoxicity in the SOS-chromotest [3]	IC50 [4] [µM]	IC50 [5] [µM]	IC50 [6] [µM]
Nc1nc(Nc2ccc(Cl)cc2)nn1S(=O)(=O)c1ccc2ccccc2c1 [Compound 1, N3-(4-chlorophenyl)-1-(2-naphthylsulfonyl)-1,2,4-triazole-3,5-diamine]	> 11 μg/ml and > 27.5 μM	> 11 μg/ml and > 27.5 μM	did not appear to be genotoxic	–	–	–
N#C/C=C/c1ccc2c(S(=O)(=O)n3nc(Nc4ccc(C#N)c(Cl)c4)nc3N)cccc2c1 [Compound 20, 4-[[5-amino-1-[[6-[2-cyanovinyl]-1-naphthyl]sulfonyl]-1,2,4-triazol-3-yl]amino]-2-chloro-benzonitrile]	–	–	–	1.42	> 50	10.6
